Data: PMC7845594, “Novel Immune Modulators Enhance Caenorhabditis elegans Resistance to Multiple Pathogens” (mSphere, 2021)
Several values for one entry are separate records, joined by “and”; a condition that tells them apart may be missing. Equal values may be shown once. Entries after “also recorded” stand apart in the source; their conditions may differ.

What was measured:
[1] = tested on: glp-4(bn2) worms exposed to methicillin-resistant S. aureus strain MRSA131; assay: S. aureus infection assay (liquid); assay type: in vivo, Caenorhabditis elegans; details: for S. aureus EC: glp-4(bn2) worms, 96 h, ± 95% confidence interval
Procedure: Enterococcus faecalis and Staphylococcus aureus are Gram-positive bacterial species frequently responsible for nosocomial infections ([24], [25]). These bacterial species readily infect C. elegans and liquid-based pathogenesis models have been developed for each ([26][–][28]). Sterile, young adult glp-4(bn2) worms were incubated with either E. faecalis or S. aureus and various concentrations of the five compounds. […] Importantly, P. aeruginosa, E. faecalis, and S. aureus use very different mechanisms to kill C. elegans (pyoverdine-mediated mitochondrial damage, gelatinase-mediated damage to the colonized intestine, and multi-toxin-mediated intestinal effacement and damage, respectively) ([29][–][33]). The ability of these compounds to rescue against multiple pathogens that utilize a diverse set of virulence factors and mechanisms of pathogenesis further supports the idea that at least a portion of these compounds’ activity is mediated by stimulating innate immunity.
FIG 2 A subset of LK molecules rescue against E. faecalis and S. aureus. […] Compounds were serially diluted 2-fold, and young adult glp-4(bn2) worms were incubated with the pathogen for 80 h (E. faecalis) or 96 h (S. aureus). The concentrations shown are based on the mean value for at least three replicates. (B and C) Percentages of dead C. elegans after exposure to E. faecalis (B) or S. aureus (C). A representative biological replicate is shown. Each condition included at least six wells per replicate, each well contained approximately 20 worms. Three biological replicates were performed. *, P < 0.05; **, P < 0.01; ***, P < 0.001. P values were calculated using Student’s t test. Error bars represent the standard error of the mean.
The S. aureus killing assay was performed as previously described with some changes ([26]). A single colony was used to inoculate a 5-ml aerobic culture of TSB. The following day, 100 µl of this culture was used to inoculate a second 10 ml of TSB culture wrapped with parafilm. Then, 384-well plates were made containing 10% TSB, and S. aureus from the second culture was resuspended in S Basal medium to a final OD of 0.04. Compounds were then serially diluted in a DMSO-S Basal solution to achieve the desired concentration in the wells with a 1% DMSO final concentration for all compounds. After 5 days, the worms were transferred to new plates using a 0.05% Tween solution to prevent S. aureus biofilm background fluorescence from obscuring dead worms. Subsequent washing, staining, imaging, and image analysis were performed identically to Pseudomonas liquid killing. EC values were defined as the minimum concentration that provided statistically significant rescue. At least three biological replicates were performed.

[2] = tested on: C. elegans transcriptome; assay: Gene ontology enrichment (DAVID) of up-/downregulated genes; design: species or system Caenorhabditis elegans; details: upregulated genes, 100 µM, 8 h
Procedure: To gain additional insight into the effect of LK molecules on C. elegans, young-adult, wild-type worms were treated with each drug at 100 µM for 8 h in the absence of pathogen. RNA was collected, and transcriptome profiling was performed.
Supplementary file : TABLE S4 Enriched gene ontology categories. […] Redundant gene ontology categories were removed. Download Table S4, XLSX file, 0.02 MB.
Transcriptome profiling was performed on ∼6,000 wild-type, young adult worms incubated with either LK molecules or DMSO for 8 h. RNA isolation was performed using TRIzol extraction, followed by cleanup using RNeasy columns according to the manufacturer’s protocol. Each condition was analyzed in triplicate. Microarray data have been deposited in the GEO database, accession number GSE137516. […] Clustering and generation of the heat map was performed using Cluster 3.0 ([98]) and Treeview ([99]), respectively. Fold change of genes were normalized to average fold change of that gene over all clustered conditions. Genes and conditions were clustered using Euclidean distance and average linkages. […] Microarray data for non-LK molecules were collected from GEO omnibus. WormEXP was used as a secondary method for confirming statistical significance of potential pathways stimulated by each of the LK molecules ([100]). Gene ontologies were generated using DAVID ([101], [102]).

[3] = tested on: PMK-1/p38 MAPK pathway; assay: irg-5p::GFP reporter; assay type: in vivo, Caenorhabditis elegans; details: 25, 50, or 100 μM, 24 h, no pathogen
Source text: (§1) To test activation of these pathways, worms carrying GFP-based reporters for the SKN-1/Nrf, PMK-1/p38 MAPK, and DAF-16/FOXO pathways (gst-4p::GFP, irg-5p::GFP, and DAF-16::GFP, respectively) were exposed to each compound in S Basal medium in the absence of the pathogen.
FIG 4 A subset of LK molecules activates reporters for the SKN-1/Nrf2 or PMK-1/p38 MAPK pathways. […] Also present are DMSO and ethanol negative controls for LK compounds and juglone, respectively. The fluorescence intensity was normalized to that of DMSO. (B) Worms carrying an irg-5p::GFP reporter for PMK-1/p38 MAPK activity were incubated at 25, 50, or 100 μM in 1% DMSO. Positive and negative controls consisted of 100 μM RPW-24 in 1% DMSO and 1% DMSO alone. Fluorescence was measured at 24 h. […] P values were calculated using Student’s t test. […]
Worms were washed three times prior to incubation with compounds or DMSO control and diluted in S Basal medium supplemented with E. coli OP50 (OD600 = 0.08) as a food source. The fluorescence fold increase for gst-4p::GPF was taken as the fluorescence of each well and was normalized to the well’s fluorescence at 0 h. irg-5p::GFP, hsp-16.1p::GFP, rpt-6p::GFP, and hsp-4::GFP fluorescence was quantified as the fluorescence/worm area. […] For quantification of nuclear localization of GFP fusion reporters, worms were scored as either localization positive or localization negative. […]

[4] = tested on: SKN-1/Nrf pathway; assay: gst-4p::GFP reporter; assay type: in vivo, Caenorhabditis elegans; details: 100 μM in 1% DMSO, no pathogen
Source text: as §1
FIG 4 A subset of LK molecules activates reporters for the SKN-1/Nrf2 or PMK-1/p38 MAPK pathways. […] Also present are DMSO and ethanol negative controls for LK compounds and juglone, respectively. The fluorescence intensity was normalized to that of DMSO. (B) Worms carrying an irg-5p::GFP reporter for PMK-1/p38 MAPK activity were incubated at 25, 50, or 100 μM in 1% DMSO. Positive and negative controls consisted of 100 μM RPW-24 in 1% DMSO and 1% DMSO alone. Fluorescence was measured at 24 h. For both panels, ∼50 worms were used per well, and at least three wells were used per condition for each biological replicate. Mean values from at least three biological replicates are shown. *, P < 0.05; **, P < 0.01; ***, P < 0.001 compared to the solvent control. P values were calculated using Student’s t test. Error bars represent the standard error of the mean.
Worms were washed three times prior to incubation with compounds or DMSO control and diluted in S Basal medium supplemented with E. coli OP50 (OD600 = 0.08) as a food source. The fluorescence fold increase for gst-4p::GPF was taken as the fluorescence of each well and was normalized to the well’s fluorescence at 0 h. irg-5p::GFP, hsp-16.1p::GFP, rpt-6p::GFP, and hsp-4::GFP fluorescence was quantified as the fluorescence/worm area. For gst-4p::GFP, 100 µM ethanol-solubilized juglone was used as a positive control. Ethanol was also tested at 1% (vol/vol) as a control. For irg-5p::GFP, RPW-24 (100 µM) was used as a positive control. For quantification of nuclear localization of GFP fusion reporters, worms were scored as either localization positive or localization negative. DAF-16::GFP worms were scored as localization positive if >5 nuclei within the worm had localized GFP. All worms were imaged at the L4-young adult stage. […]

[5] = tested on: GroEL and GroES families of bacterial chaperones; design: method as in PMID 27184767, PMID 24418775; details: cited from earlier work
[6] = tested on: RWPE-1 cells; assay: MTT cell viability assay; details: RWPE-1, 10, 50, or 100 µM, 24 h; cell death greater than 30% = toxicity
Procedure: (B) 1.5 × 10^4 RWPE-1 immortalized prostate cells were seeded into each well of a 96-well plate. […] The viability was normalized to a DMSO solvent control. Six wells were used per condition, and an average of three biological replicates is shown.
We also tested compound toxicity in RWPE-1 cells, a well-established, noncancerous, immortalized prostate epithelial cell line available in the lab. Cells were seeded in 96-well plates and allowed to attach before media containing various concentrations of one of the compounds (or DMSO as a control) were added. […] Cell death greater than 30% was considered evidence of toxicity (Fig. 3B).
Then, 100 µl of DMSO was added, and the absorbance at 590 nm measured. MTT assays were performed in triplicate.

[7] = tested on: MOLT-4; details: cited from earlier work

CN(C)/N=N/c1ccc(-c2cn(Cc3ccccc3)cn2)cc1 [LK38]
S. aureus EC [1]: > 64 µM | Fold Enrichment, GO term Cytochrome P450 [2]: 12.2 | irg-5p::GFP fluorescence (PMK-1/p38 MAPK activation) [3]: modest increase

CCN(CC)/N=N/c1ccc(C(=O)O)cc1 [LK35]
S. aureus EC [1]: > 64 µM

CNC(=O)Oc1c(Br)cc2sc(=O)oc2c1Br [LK34]
S. aureus EC [1]: 42.7 µM and 42.7 ± 11.4 µM | gst-4p::GFP induction (SKN-1/Nrf activation) [4]: induced gst-4p::GFP | Inhibition of GroEL and GroES chaperones [5]: potent inhibitor | Toxicity in mammalian cells (MTT viability) [6]: some toxicity

COC(=O)/C=C/C(=O)Nc1ccccc1 [LK32]
S. aureus EC [1]: > 64 µM | gst-4p::GFP induction (SKN-1/Nrf activation) [4]: induced gst-4p::GFP | LD50 [7]: ~40 µM | Toxicity in mammalian cells (MTT viability) [6]: poorly tolerated; also recorded: substantial toxicity

O=c1cc(CNc2ccc(Br)cc2)nc2sccn12 [LK56]
Need of MDT-15 for rescue (mdt-15(RNAi)) ([1]; S. aureus, 32 µM): required | S. aureus EC [1]: 56 µM and 56 ± 12.8 µM | Fold Enrichment, GO term Cytochrome P450 [2]: 12.9 | gst-4p::GFP induction (SKN-1/Nrf activation) [4]: not activated | irg-5p::GFP fluorescence (PMK-1/p38 MAPK activation) [3]: modest increase
